This is an account of results in US20140113898A1, “BISARYLSULFONE AND DIALKYLARYLSULFONE COMPOUNDS AS CALCIUM CHANNEL BLOCKERS” (Zalicus Pharmaceuticals Ltd., priority 2010, published 2014).

The structures appear in SMILES notation.

This test deals with T1, CaV2.2 (Homo sapiens, UniProt Q00975).
T1 construct: expressed in transfected cells; host or cells: unnamed doxycycline-inducible cell line
T1 sequence (Q00975 whole entry): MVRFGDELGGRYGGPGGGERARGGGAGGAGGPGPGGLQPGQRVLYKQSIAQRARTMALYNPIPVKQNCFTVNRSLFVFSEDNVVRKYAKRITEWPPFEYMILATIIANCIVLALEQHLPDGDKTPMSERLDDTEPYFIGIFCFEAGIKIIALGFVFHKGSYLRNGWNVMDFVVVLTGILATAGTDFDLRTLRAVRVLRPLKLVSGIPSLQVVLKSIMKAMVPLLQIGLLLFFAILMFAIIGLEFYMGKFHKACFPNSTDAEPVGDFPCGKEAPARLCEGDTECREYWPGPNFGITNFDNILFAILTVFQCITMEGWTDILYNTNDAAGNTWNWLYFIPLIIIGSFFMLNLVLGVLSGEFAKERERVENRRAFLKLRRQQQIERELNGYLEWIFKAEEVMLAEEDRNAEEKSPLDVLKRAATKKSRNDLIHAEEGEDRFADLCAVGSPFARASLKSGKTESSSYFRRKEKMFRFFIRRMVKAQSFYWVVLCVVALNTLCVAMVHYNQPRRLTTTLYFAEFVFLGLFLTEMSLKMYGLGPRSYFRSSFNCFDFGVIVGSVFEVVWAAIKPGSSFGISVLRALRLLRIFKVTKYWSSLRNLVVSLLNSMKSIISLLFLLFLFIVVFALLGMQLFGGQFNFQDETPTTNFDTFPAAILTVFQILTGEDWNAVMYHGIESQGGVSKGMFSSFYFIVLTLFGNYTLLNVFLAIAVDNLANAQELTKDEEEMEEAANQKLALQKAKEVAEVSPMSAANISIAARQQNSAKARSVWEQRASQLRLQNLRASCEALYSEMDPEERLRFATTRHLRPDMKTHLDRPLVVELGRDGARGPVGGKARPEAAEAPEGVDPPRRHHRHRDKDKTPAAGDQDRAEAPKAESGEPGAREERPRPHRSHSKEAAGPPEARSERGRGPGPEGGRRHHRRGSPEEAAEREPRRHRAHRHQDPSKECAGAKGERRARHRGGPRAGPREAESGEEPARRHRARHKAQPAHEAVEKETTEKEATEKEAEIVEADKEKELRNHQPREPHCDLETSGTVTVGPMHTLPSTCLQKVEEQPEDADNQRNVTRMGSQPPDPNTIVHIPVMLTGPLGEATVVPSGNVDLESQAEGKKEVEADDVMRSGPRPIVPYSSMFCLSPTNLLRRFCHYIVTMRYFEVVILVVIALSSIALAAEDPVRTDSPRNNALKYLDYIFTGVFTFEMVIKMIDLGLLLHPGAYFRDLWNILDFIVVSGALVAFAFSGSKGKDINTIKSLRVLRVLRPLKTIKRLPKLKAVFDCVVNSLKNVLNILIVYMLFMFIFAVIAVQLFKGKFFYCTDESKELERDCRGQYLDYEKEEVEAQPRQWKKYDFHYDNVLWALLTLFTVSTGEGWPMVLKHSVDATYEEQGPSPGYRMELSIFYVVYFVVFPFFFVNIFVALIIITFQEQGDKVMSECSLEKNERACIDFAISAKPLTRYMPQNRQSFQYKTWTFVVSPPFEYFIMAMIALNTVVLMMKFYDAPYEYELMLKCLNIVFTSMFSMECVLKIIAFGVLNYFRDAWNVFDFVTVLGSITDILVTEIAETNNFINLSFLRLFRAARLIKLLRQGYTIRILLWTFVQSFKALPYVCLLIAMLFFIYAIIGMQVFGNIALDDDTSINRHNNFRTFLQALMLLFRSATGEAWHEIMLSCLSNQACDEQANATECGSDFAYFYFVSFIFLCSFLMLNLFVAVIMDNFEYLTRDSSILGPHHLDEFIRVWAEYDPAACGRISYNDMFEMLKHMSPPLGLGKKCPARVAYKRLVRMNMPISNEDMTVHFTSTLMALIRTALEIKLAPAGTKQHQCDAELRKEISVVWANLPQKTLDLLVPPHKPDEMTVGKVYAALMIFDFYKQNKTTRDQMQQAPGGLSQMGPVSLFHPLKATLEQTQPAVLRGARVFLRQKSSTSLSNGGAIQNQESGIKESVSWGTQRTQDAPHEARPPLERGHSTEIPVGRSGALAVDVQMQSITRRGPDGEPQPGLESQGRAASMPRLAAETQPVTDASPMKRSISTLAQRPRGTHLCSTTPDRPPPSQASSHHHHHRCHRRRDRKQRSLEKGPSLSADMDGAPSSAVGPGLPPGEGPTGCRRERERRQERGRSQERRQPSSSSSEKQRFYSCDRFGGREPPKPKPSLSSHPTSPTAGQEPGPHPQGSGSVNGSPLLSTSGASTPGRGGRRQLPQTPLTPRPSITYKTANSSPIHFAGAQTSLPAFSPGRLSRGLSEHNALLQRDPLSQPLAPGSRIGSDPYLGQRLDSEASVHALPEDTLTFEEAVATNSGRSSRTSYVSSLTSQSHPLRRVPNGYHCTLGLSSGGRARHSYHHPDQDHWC
T1 sequence (P54284 whole entry partner): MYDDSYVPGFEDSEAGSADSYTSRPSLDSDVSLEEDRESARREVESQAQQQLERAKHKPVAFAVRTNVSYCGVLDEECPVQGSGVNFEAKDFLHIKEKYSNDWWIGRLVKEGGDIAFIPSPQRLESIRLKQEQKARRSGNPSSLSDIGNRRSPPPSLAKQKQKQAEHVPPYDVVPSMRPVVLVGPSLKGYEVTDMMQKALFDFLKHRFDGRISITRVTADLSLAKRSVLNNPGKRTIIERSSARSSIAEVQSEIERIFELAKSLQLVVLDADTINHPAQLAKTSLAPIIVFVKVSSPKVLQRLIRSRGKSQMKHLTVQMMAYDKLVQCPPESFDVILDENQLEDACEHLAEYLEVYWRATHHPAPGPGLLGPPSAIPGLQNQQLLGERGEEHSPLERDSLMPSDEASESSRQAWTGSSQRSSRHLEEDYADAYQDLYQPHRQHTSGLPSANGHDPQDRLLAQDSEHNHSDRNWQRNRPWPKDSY
T1 sequence (P54289 25-946 partner limits assumed): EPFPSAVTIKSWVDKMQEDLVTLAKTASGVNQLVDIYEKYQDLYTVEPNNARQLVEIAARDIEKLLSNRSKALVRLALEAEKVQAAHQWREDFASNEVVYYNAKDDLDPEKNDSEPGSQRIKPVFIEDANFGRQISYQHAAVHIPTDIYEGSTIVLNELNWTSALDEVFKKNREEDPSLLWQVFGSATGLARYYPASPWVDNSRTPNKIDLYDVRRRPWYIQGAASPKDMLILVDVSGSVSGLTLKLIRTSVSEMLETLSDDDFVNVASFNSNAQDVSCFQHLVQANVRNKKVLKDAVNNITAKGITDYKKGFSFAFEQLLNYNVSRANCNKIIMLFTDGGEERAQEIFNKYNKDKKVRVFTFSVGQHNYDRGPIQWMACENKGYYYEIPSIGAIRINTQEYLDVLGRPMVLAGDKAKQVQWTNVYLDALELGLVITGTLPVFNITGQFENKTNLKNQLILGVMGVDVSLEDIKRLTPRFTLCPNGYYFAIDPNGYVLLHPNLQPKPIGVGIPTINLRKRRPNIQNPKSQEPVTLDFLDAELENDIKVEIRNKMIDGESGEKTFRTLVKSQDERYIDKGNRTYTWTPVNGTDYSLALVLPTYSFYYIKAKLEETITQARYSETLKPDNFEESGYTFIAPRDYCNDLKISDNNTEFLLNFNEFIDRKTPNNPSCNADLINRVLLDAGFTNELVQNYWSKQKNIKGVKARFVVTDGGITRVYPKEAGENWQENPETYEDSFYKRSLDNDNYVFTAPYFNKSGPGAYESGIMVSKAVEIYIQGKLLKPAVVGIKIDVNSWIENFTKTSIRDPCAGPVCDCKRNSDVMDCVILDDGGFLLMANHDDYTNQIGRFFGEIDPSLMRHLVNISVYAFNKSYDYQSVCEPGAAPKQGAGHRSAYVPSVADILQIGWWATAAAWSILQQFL
T1 sequence (P54289 947-1103 partner limits assumed): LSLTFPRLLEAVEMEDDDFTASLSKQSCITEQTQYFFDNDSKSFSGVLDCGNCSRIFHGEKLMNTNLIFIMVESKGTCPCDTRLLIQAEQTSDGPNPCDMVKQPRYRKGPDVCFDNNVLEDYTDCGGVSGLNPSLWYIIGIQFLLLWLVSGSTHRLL
Kind of test: High-throughput CaV2.2/Kir2.3 FLIPR fluorescent assay. The note with it: Table 5; Fluo-4 FLIPR; closed or inactivated state not stated; read-out: FLIPR data CaV2.2. Format: cell-based. As to the method: Cells were plated in 384-well, clear-bottom, black-walled, poly-D-lysine coated plates (Becton Dickinson, Franklin Lake, N.J.) 2 days prior to use in the FLIPR assay. 100 μL of cells (1.4×10^6 cell/mL) containing doxycyline (Sigma-Aldrich, 1.5 μg/mL; to induce channel expression) were added to each well using a Multidrop (Thermo Scientific, Waltham, Mass.) and were maintained in 5% CO2 incubator at 37° C. On the morning of the assay, cells were transferred to a 5% CO2 incubator at 29° C.
Cells were washed with a wash buffer containing (in mM): 118 NaCl, 18.4 HEPES, 11.7 D-glucose, 2 CaCl2, 0.5 MgSO4, 4.7 KCl, 1.2 KH2PO4, pH adjusted to 7.2 with NaOH. 4.4 μM of the fluorescent indicator dye, Fluo-4 (Invitrogen), prepared in pluronic acid (Sigma-Aldrich), was loaded into the wells and incubated for 45 minutes at 29° C. in 5% CO2. Cells were then rinsed with either a 2 mM KCl closed-state buffer (in mM: 138.5 NaCl, 10 HEPES, 10 D-glucose, 1 CaCl2, and 2 KCl, with the pH adjusted to 7.4 with NaOH) when performing the closed-state assay or 12.5 mM KCl inactivated-state buffer (in mM: 128 NaCl, 10 HEPES, 10 D-glucose, 1 CaCl2, and 12.5 mM KCl, with the pH adjusted to 7.4 with NaOH) when performing the inactivated-state assay.
Calcium entry was evoked with an addition of 130 mM KCl stimulation buffer (in mM: 10.5 NaCl, 10 HEPES, 10 D-glucose, 1 CaCl2, and 130 KCl, with the pH adjusted to 7.4 with NaOH) for both the closed-state or inactivated-state assay. A change in the Fluo-4 fluorescence signal was assessed using FLIPR^TETRA™ instrument (Molecular Devices, Sunnyvale, Calif.) for 3 minutes following the elevation of extracellular KCl using an illumination wavelength of 470-495 nm with emissions recorded at 515-575 nm.
Concentration-dependent response curves were obtained by comparing the fluorescence signal in the presence of compound and fitted with a logistic function (1) to obtain the concentration that inhibited 50% (IC50) of the RLU signal using OriginPro v.7.5 software (OriginLab, Northampton, Mass.).
To assess the quality of the FLIPR assays the Z-factor (2) was used to quantify the suitability of the assay conditions using the following equation: […]
Data are expressed as mean and standard deviation (SD).
Regarding `CC(C)(C)C(=O)Nc1ncccc1C(=O)NCC(C)(C)S(=O)(=O)c1cccc(C(F)(F)F)c1` [Compound 163, N-(2-methyl-2-((3-(trifluoromethyl)phenyl)sulfonyl)propyl)-2-pivalamidonicotinamide], the IC50 is 2.25 µM.

Take `CC(C)(CNC(=O)c1cnc(C(F)(F)F)nc1)S(=O)(=O)c1cccc(C(F)(F)F)c1` [Compound 164, N-(2-methyl-2-((3-(trifluoromethyl)phenyl)sulfonyl)propyl)-2-(trifluoromethyl)pyrimidine-5-carboxamide]: the IC50 was 4.66 µM.

Consider `Cc1cc(C(=O)NCC(C)(C)S(=O)(=O)c2cccc(C(F)(F)F)c2)cc(C)c1O` [Compound 167, 4-hydroxy-3,5-dimethyl-N-(2-methyl-2-((3-(trifluoromethyl)phenyl)sulfonyl)propyl)benzamide], for which the IC50 came to 1.4 µM.

In the case of `Cc1ccc(C(=O)NCC(C)(C)S(=O)(=O)c2cccc(C(F)(F)F)c2)c(C)c1` [Compound 169, 2,4-dimethyl-N-(2-methyl-2-((3-(trifluoromethyl)phenyl)sulfonyl)propyl)benzamide], the IC50 amounted to 1.36 µM.

Turning to `CC(C)(CNC(=O)c1ccc(S(C)(=O)=O)cc1)S(=O)(=O)c1cccc(C(F)(F)F)c1` [Compound 171, N-(2-methyl-2-((3-(trifluoromethyl)phenyl)sulfonyl)propyl)-4-(methylsulfonyl)benzamide], the IC50 is 8.12 µM.

Turning to `Cc1nc(C(F)(F)F)ccc1C(=O)NCC(C)(C)S(=O)(=O)c1cccc(C(F)(F)F)c1` [Compound 172, 2-methyl-N-(2-methyl-2-((3-(trifluoromethyl)phenyl)sulfonyl)propyl)-6-(trifluoromethyl)nicotinamide], the IC50 turned out to be 2.17 µM.

As for `Cc1cncc(C(=O)NCC(C)(C)S(=O)(=O)c2cccc(C(F)(F)F)c2)c1` [Compound 173, 5-methyl-N-(2-methyl-2-((3-(trifluoromethyl)phenyl)sulfonyl)propyl)nicotinamide], the IC50 turned out to be 9.06 µM.

Turning to `CC(C)(CNC(=O)c1cnccc1C(F)(F)F)S(=O)(=O)c1cccc(C(F)(F)F)c1` [Compound 174, N-(2-methyl-2-((3-(trifluoromethyl)phenyl)sulfonyl)propyl)-4-(trifluoromethyl)nicotinamide], the IC50 was found to be 4.36 µM.

For the compound `CC(C)(CNC(=O)c1ccnc(F)c1)S(=O)(=O)c1cccc(C(F)(F)F)c1` [Compound 177, 2-fluoro-N-(2-methyl-2-((3-(trifluoromethyl)phenyl)sulfonyl)propyl)isonicotinamide], the IC50 worked out at 10 µM.

`CC(C)(CNC(=O)c1ccnc(C(F)(F)F)c1)S(=O)(=O)c1cccc(C(F)(F)F)c1` [Compound 179, N-(2-methyl-2-((3-(trifluoromethyl)phenyl)sulfonyl)propyl)-2-(trifluoromethyl)isonicotinamide]: the IC50 came to 1.24 µM.

On to `CC(C)(CNC(=O)c1ccnc(Cl)c1)S(=O)(=O)c1cccc(C(F)(F)F)c1` [Compound 180, 2-chloro-N-(2-methyl-2-((3-(trifluoromethyl)phenyl)sulfonyl)propyl)isonicotinamide], for which the IC50 was 3.96 µM.

Take `CC(C)(CN1Cc2nc(C(F)(F)F)ccc2C1=O)S(=O)(=O)c1cccc(C(F)(F)F)c1` [Compound 182, 6-(2-methyl-2-((3-(trifluoromethyl)phenyl)sulfonyl)propyl)-2-(trifluoromethyl)-6,7-dihydro-5H-pyrrolo[3,4-b]pyridin-5-one]: the IC50 is 10 µM.

Turning to `CC(C)(CCNC(=O)c1ccc(C(F)(F)F)nc1S(C)(=O)=O)S(=O)(=O)c1cccc(C(F)(F)F)c1` [Compound 183, N-(3-methyl-3-((3-(trifluoromethyl)phenyl)sulfonyl)butyl)-2-(methylsulfonyl)-6-(trifluoromethyl)nicotinamide], the IC50 is 1.56 µM.

In the case of `CC(C)(CCNC(=O)c1ccc(S(C)(=O)=O)cc1Cl)S(=O)(=O)c1cccc(C(F)(F)F)c1` [Compound 189, 2-chloro-N-(3-methyl-3-((3-(trifluoromethyl)phenyl)sulfonyl)butyl)-4-(methylsulfonyl)benzamide], the IC50 is 1.36 µM.

Regarding `CC(C)(CCNC(=O)c1ccc(S(C)(=O)=O)cc1)S(=O)(=O)c1cccc(C(F)(F)F)c1` [Compound 191, N-(3-methyl-3-((3-(trifluoromethyl)phenyl)sulfonyl)butyl)-4-(methylsulfonyl)benzamide], the IC50 was found to be 1.42 µM.

Take `CC(C)(CCNC(=O)c1ccccc1S(C)(=O)=O)S(=O)(=O)c1cccc(C(F)(F)F)c1` [Compound 192, N-(3-methyl-3-((3-(trifluoromethyl)phenyl)sulfonyl)butyl)-2-(methylsulfonyl)benzamide]: the IC50 came to 3.04 µM.

Consider `CC(C)(CCNC(=O)Cc1cccc(S(C)(=O)=O)c1)S(=O)(=O)c1cccc(C(F)(F)F)c1` [Compound 193, N-(3-methyl-3-((3-(trifluoromethyl)phenyl)sulfonyl)butyl)-2-(3-(methylsulfonyl)phenyl)acetamide], for which the IC50 amounted to 1.68 µM.

With `CC(C)(CCNC(=O)c1cc(F)ccc1S(C)(=O)=O)S(=O)(=O)c1cccc(C(F)(F)F)c1` [Compound 194, 5-fluoro-N-(3-methyl-3-((3-(trifluoromethyl)phenyl)sulfonyl)butyl)-2-(methylsulfonyl)benzamide], the IC50 worked out at 1.53 µM.

Consider `CC(C)(CCNC(=O)[C@H]1CCCCN1)S(=O)(=O)c1cccc(C(F)(F)F)c1` [Compound 195, (R)-N-(3-methyl-3-((3-(trifluoromethyl)phenyl)sulfonyl)butyl)piperidine-2-carboxamide], for which the IC50 stood at 3.11 µM.

As to `CC(C)(CCNC(=O)[C@@H]1CCCCN1)S(=O)(=O)c1cccc(C(F)(F)F)c1` [Compound 196, (S)-N-(3-methyl-3-((3-(trifluoromethyl)phenyl)sulfonyl)butyl)piperidine-2-carboxamide], the IC50 turned out to be 3.51 µM.

With `CC(C)(CCNC(=O)C1(N)CCOCC1)S(=O)(=O)c1cccc(C(F)(F)F)c1` [Compound 197, 4-amino-N-(3-methyl-3-((3-(trifluoromethyl)phenyl)sulfonyl)butyl)tetrahydro-2H-pyran-4-carboxamide], the IC50 was found to be 10 µM.

As to `CC(C)(CCNC(=O)C1(N)CCS(=O)(=O)CC1)S(=O)(=O)c1cccc(C(F)(F)F)c1` [Compound 198, 4-amino-N-(3-methyl-3-((3-(trifluoromethyl)phenyl)sulfonyl)butyl)tetrahydro-2H-thiopyran-4-carboxamide 1,1-dioxide], the IC50 is 9.13 µM.

Consider `CO[C@H]1CN[C@@H](C(=O)NCCC(C)(C)S(=O)(=O)c2cccc(C(F)(F)F)c2)C1` [Compound 199, (2R,4R)-4-methoxy-N-(3-methyl-3-((3-(trifluoromethyl)phenyl)sulfonyl)butyl)pyrrolidine-2-carboxamide], for which the IC50 amounted to 3.31 µM.

On to `CC(C)(CCNC(=O)[C@H](N)c1ccccc1)S(=O)(=O)c1cccc(C(F)(F)F)c1` [Compound 200], for which the IC50 was found to be 1.05 µM.

As for `CC(C)(N)C(=O)NCCC(C)(C)S(=O)(=O)c1cccc(C(F)(F)F)c1` [Compound 201, 2-amino-2-methyl-N-(3-methyl-3-((3-(trifluoromethyl)phenyl)sulfonyl)butyl)propanamide], the IC50 was determined as 10 µM.

Regarding `CC(C)(CCNC(=O)C1(N)CC1)S(=O)(=O)c1cccc(C(F)(F)F)c1` [Compound 202, 1-amino-N-(3-methyl-3-((3-(trifluoromethyl)phenyl)sulfonyl)butyl)cyclopropanecarboxamide], the IC50 was 10 µM.

For `CC(C)(CCNC(=O)C1(N)CCC1)S(=O)(=O)c1cccc(C(F)(F)F)c1` [Compound 203, 1-amino-N-(3-methyl-3-((3-(trifluoromethyl)phenyl)sulfonyl)butyl)cyclobutanecarboxamide], the IC50 was found to be 5.85 µM.

As for `CNC(C)(C)C(=O)NCCC(C)(C)S(=O)(=O)c1cccc(C(F)(F)F)c1` [Compound 204, 2-methyl-N-(3-methyl-3-((3-(trifluoromethyl)phenyl)sulfonyl)butyl)-2-(methylamino)propanamide], the IC50 worked out at 10.2 µM.

With `CC(C)(CCNC(=O)[C@@H](N)c1ccccc1)S(=O)(=O)c1cccc(C(F)(F)F)c1` [Compound 205, (S)-2-amino-N-(3-methyl-3-((3-(trifluoromethyl)phenyl)sulfonyl)butyl)-2-phenylacetamide], the IC50 was 1.48 µM.

On to `CC(C)(CCNC(=O)CC1CCNCC1)S(=O)(=O)c1cccc(C(F)(F)F)c1` [Compound 206, N-(3-methyl-3-((3-(trifluoromethyl)phenyl)sulfonyl)butyl)-2-(piperidin-4-yl)acetamide], for which the IC50 amounted to 10 µM.
